Patent EP3974434B1, “MACROLIDE DERIVATIVES, PREPARATION METHOD AND APPLICATION THEREOF” (Zhejiang Hisun Pharmaceutical Co., Ltd., priority 2019, dated 2020)

How the values were obtained:
ALK(G1202R) = target: T1, ALK(G1202R) (Homo sapiens, UniProt Q9UM73, G1202R); assay: HTRF KinEASE-TK kinase activity inhibition assay, ALK(G1202R); assay type: biochemical; conditions: ATP 10 µM
T1 construct: purchased SignalChem A19-12HG-10
Source text: The following method was used to determine the inhibition degrees of the compounds of the present invention on the activities of recombinant human ALK(G1202R) and ALK(L1196M, G1202R) kinases in vitro. In this method, HTRF®KinEASE-TK tyrosine kinase kit (article No. 62TK0PEB) of Cisbio company was used, the principle of the kit was based on time-resolved fluorescence resonance energy transfer (TF-FRET), and the inhibitions of the compounds on the activities of the ALK(G1202R) and ALK(L1196M, G1202R) kinases were reflected by determining a phosphorylation degree of a biotinylated polypeptide substrate mediated by ALK kinase. For detailed experimental operation, please refer to the kit instruction. […]
The experimental flow was briefly described as follows: a test compound was first dissolved in DMSO to prepare a storage solution, and then diluted in gradient with a buffer provided in the kit. […] An ATP Km value concentration of each ALK protein was determined by using an ATP solution diluted in gradient (Sangon Biotech (Shanghai) Co., Ltd., A600311). […] After incubation, fluorescence intensity values of each well at an excitation wavelength of 304 nm, and emission wavelengths of 620 nm and 665 nM were determined in a TF-FRET mode on a microplate reader, and the fluorescence intensity ratio 665/620 of each hole was calculated. […]

[1] = system: KARPAS-299 (human anaplastic large cell lymphoma cell); assay: Cell proliferation assay (CellTiter-Glo), KARPAS-299; assay type: cell-based; conditions: 72 hours, NPM-ALK fusion
Source text: The following method was used to determine the effects of the compounds of the present invention on cell proliferation. H2228 cells (containing EML4-ALK fusion) were purchased from Cell Resource Center of Shanghai Institutes for Biological Sciences, Chinese Academy of Sciences. KARPAS-299 cells (containing NPM-ALK fusion) were purchased from Nanjing COBIOER Biotechnology Co., Ltd. The above two cell lines were used to determine the inhibition of the compounds on cell activities. The cells were cultured in an RPMI 1640 medium containing 10% fetal bovine serum, 100 U penicillin, 100 µg/mL streptomycin, and 1 mM Sodium Pyruvate. The cells were cultured in a 5% CO2 incubator at 37°C. The activity of the cells was determined by CellTiter-Glo® Luminescent Cell Viability Assay kit (Promega, article number: G7573).
The experimental methods were operated according to the steps in the kit instruction, and were briefly described as follows: a test compound was first dissolved in DMSO to prepare a storage solution, and then diluted in gradient with the corresponding cell culture medium to prepare a test sample. […] After the culture, 50 µL of CellTiter-Glo detection solution was added to each well, shaken for 5 minutes, and then stood for 10 minutes, and the luminescence values of each well were read on the microplate reader using a Luminance mode. […]

T1 sequence (Q9UM73 19-1620 G1202R): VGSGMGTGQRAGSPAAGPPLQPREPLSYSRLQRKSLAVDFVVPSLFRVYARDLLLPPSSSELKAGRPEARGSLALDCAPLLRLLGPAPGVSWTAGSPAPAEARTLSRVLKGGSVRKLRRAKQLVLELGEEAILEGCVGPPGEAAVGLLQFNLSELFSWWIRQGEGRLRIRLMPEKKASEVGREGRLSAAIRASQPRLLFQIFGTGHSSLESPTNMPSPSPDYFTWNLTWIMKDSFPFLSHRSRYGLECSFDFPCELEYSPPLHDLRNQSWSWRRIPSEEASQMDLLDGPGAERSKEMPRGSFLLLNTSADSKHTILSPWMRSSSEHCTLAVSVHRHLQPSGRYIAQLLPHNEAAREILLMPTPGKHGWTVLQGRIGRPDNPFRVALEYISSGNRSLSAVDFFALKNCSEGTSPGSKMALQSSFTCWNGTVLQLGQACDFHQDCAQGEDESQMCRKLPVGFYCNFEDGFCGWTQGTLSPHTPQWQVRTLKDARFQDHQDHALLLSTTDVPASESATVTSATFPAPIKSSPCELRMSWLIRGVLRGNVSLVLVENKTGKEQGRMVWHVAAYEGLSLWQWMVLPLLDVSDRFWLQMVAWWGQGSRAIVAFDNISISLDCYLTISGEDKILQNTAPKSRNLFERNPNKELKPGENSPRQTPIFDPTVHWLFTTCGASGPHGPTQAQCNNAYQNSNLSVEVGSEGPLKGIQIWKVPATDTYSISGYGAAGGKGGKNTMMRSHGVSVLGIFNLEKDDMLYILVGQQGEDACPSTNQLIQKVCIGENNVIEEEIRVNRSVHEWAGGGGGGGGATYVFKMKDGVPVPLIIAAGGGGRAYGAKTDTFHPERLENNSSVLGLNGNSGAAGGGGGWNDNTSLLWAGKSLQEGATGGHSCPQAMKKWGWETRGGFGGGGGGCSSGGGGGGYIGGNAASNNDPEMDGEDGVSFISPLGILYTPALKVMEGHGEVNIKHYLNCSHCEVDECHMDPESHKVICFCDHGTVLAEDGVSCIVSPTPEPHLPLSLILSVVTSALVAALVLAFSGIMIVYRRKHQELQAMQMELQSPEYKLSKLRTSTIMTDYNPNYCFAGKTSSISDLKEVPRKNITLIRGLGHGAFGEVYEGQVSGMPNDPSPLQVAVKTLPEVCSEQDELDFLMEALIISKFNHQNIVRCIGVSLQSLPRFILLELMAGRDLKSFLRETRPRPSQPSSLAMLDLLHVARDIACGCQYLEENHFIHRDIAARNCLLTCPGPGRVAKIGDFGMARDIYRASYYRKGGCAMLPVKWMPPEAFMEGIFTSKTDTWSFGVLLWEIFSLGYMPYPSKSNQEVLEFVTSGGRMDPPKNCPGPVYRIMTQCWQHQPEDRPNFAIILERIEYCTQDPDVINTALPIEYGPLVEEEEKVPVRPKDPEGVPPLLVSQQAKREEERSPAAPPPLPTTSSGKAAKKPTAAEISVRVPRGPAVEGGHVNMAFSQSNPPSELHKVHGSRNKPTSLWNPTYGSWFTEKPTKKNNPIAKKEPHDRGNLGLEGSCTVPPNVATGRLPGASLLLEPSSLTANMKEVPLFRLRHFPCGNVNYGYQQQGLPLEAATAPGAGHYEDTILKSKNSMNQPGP

IC50 (ALK(G1202R)) [nM]	IC50 [1] [nM]	SMILES
13.2	65.5	C[C@H]1Nc2ccn3ncc(c3n2)C(=O)NC[C@@]2(C)Cc3cc(F)cc1c3O2 [Example 8, (3R,11R)-6-fluoro-3,11-dimethyl-10-oxa-2,13,17,1 8,21-pentaazapentacyclo[13.5.2.1^8,11.0^4,9.0^18,22]tric osa-1(21),4,6,8,15(22),16,19-heptaen-14-one]
13.6	52.7	C[C@H]1Nc2ccn3nc(N)c(c3n2)C(=O)NC[C@@]2(C)Cc3cc(F)cc1c3O2 [Example 25, (3R,11R)-16-amino-6-fluoro-3,11-dimethyl-10-oxa-2,13,17,18,21-pentaazapentacyclo[13.5.2.1^8,11.0^4,9. 0^18,22]tricosa-1(21),4,6,8,15(22),16,19-heptaen-14-one]
